Reference: patent US12150937B2, “NLRP3 modulators” (INNATE TUMOR IMMUNITY, INC., priority 2019, dated 2024)
pEC50: −log10 of the molar value.

Molecular target: T1, NLRP3 (Homo sapiens, UniProt Q96P20)
T1 construct: Measurement of IL-1β Production in PMA-Differentiated THP-1 Cells; host or cells: THP-1 cells, PMA-differentiated
Assay: Measurement of IL-1β production in PMA-differentiated THP-1 cells (NLRP3 hIL1β)
Type: cell-based
Experimental: Measurement of IL-1β Production in PMA-Differentiated THP-1 Cells
THP-1 cells were purchased from the American Type Culture Collection and sub-cultured according to instructions from the supplier. Prior to experiments, cells were cultured in RPMI 1640 containing 10% heat inactivated FBS, penicillin (100 units/ml) and streptomycin (100 μg/ml), and maintained in log phase prior to experimental setup. Prior to the experiment THP-1 were treated with PMA (Phorbol 12-myristate 13-acetate) (10 μg/ml) for 24 hours. The day of the experiment the media was removed and attaching cells were treated with trypsin for 2 minutes, cells were then collected, washed with PBS (phosphate buffer saline), spin down, resuspended in 2% heat inactivated FBS with RPMI at a concentration of 1×10^6 cells/ml, and 100 μl was plated in a 96 well plate. Compounds were dissolved in dimethyl sulfoxide (DMSO) and added to the culture medium to achieve desired concentration (e.g. 100, 30, 10, 3, 1, 0.3 or 0.1 μM). Cells were incubated with compounds for 4 hours. Cell free supernatant was collected and the production of IL-1β was evaluated by ELISA. A vehicle only control was run concurrently with each experiment. Final DMSO concentration was 1%.
Measurement of IL-1β Production in PMA-Differentiated THP-1 Cells (Alternative Procedure)
THP-1 cells were purchased from the American Type Culture Collection and sub-cultured according to instructions from the supplier. Prior to experiments, cells were cultured in RPMI 1640 containing 10% heat inactivated FBS, penicillin (100 units/ml), streptomycin (100 μg/ml), HEPES (10 mM) and sodium pyruvate (1 mM) and maintained in log phase prior to experimental setup. Prior to the experiment, THP-1 cells were treated with PMA (Phorbol 12-myristate 13-acetate) (20 μg/ml) overnight. The day of the experiment, the media was removed and attached cells were treated with trypsin for 2 minutes, cells were then collected, washed with PBS (phosphate buffer saline), pelleted by centrifugation and resuspended in 2% heat inactivated FBS with RPMI at a concentration of 50,000 cells/well in a 384 well plate. Cell free supernatant was collected and the production of IL-1β was evaluated by ELISA. Compounds were dissolved in dimethyl sulfoxide (DMSO) and added to the culture medium to achieve desired concentration (e.g. 100, 30, 10, 3, 1, 0.3 or 0.1 μM). Cells were incubated with compounds for 2 hours. A vehicle only control was run concurrently with each experiment. Final DMSO concentration was 1%.
Measurement of IL-1β Production—hTRF Protocol (Second Alternative Procedure)
Serial dilutions of compounds in DMSO were added to low volume 384 well plates at 100 nl/well using an ECHO 550 acoustic dispenser (Labcyte) to achieve final starting concentration of 10 μM in assay.
THP-1 cells in RPMI (Gibco, 11875) media with 10% FBS at a density of 1×10^6 cell/ml in a T175 flask were treated with a final concentration of phorbol 12-myristate 13-acetate (PMA) (Sigma, P1585) of 50 ng/ml overnight at 37° C. at 5% CO2 for differentiation. Cells were harvested the next day after rinsing well wth dPBS using 0.5% trypsin. A cell solution was prepared of 1×10^6 cells/ml for 50,000 cells in 50 μl/well in RPMI media with 2% FBS. Cells were plated using a multichannel pipette onto the compound dilutions in Greiner, 384 well, black clear bottom tissue culture treated plates (781090). The plates were incubated in 37° C. incubator at 5% CO2 for 2 hours.
After the 2 hour incubation, the cell plates were spun in the centrifuge for 5 minutes at 1200 rpm. Using the Felix (CyBio), 8 μl of the supernatant was transferred to 384 well, low volume, white proxy plates. (Perkin Elmer, 6008230). A human IL1beta hTRF kit was used to analyze the supernatant (CISBIO, 62HIL1BPEG). The kit instructions were followed for preparing the IL1Beta standard curve and then the antibodies from the kit were diluted 1:40 rather than 1:20 as kit instructed. […]

T1 sequence (Q96P20 whole entry): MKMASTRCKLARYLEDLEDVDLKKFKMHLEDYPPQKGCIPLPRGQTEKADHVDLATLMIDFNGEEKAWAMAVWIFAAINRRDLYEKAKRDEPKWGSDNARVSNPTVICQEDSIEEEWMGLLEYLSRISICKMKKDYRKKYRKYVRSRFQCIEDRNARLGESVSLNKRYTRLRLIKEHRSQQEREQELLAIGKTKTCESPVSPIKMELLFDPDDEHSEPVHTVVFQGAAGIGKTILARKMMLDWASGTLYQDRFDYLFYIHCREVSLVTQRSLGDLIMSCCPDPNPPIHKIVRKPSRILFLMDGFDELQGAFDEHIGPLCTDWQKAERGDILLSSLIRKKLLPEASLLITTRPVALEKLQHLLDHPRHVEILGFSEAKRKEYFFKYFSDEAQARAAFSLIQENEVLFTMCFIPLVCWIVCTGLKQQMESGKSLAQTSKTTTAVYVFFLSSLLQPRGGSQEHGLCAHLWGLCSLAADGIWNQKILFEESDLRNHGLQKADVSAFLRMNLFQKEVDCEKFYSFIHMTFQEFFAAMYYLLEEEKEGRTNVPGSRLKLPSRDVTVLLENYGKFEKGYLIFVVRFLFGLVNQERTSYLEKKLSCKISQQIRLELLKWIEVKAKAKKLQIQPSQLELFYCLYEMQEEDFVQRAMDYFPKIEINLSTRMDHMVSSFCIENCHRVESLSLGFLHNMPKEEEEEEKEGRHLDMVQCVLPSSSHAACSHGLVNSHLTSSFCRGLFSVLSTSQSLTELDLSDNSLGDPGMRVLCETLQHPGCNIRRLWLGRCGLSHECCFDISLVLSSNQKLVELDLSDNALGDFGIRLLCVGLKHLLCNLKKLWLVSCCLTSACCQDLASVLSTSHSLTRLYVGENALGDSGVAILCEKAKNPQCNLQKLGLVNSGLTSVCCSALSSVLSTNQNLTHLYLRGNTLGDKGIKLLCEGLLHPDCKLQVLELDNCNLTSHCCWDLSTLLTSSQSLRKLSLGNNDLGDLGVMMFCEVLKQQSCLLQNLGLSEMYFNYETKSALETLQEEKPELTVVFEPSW

| SMILES | pEC50 |
| --- | --- |
| Nc1cc(NCc2cccnn2)c2ccc(-c3cc[nH]n3)nc2n1 [Example 9] | 5.70 |
| Nc1cc(NCCCO)c2ccc(-c3cc[nH]n3)nc2n1 [Example 1, 3-((2-amino-7-(1H-pyrazol-3-yl)-1,8-naphthyridin-4-yl)amino)propan-1-ol] | 6.00 |
| Nc1nc(N[C@H]2CC[C@H](O)C2)c2ccc(-c3ccn[nH]3)nc2n1 [Example 7, (1S,3 S)-3-((2-amino-7-(1H-pyrazol-5-yl)pyrido[2,3-d]pyrimidin-4-yl)amino)cyclopentan-1-ol] | 5.24 |
| Nc1nc(N[C@@H]2CCOC2)c2ncc(-c3cc[nH]n3)cc2n1 [Example 6, (R)-7-(1H-pyrazol-3-yl)-N4-(tetrahydrofuran-3-yl)pyrido[3,2-d]pyrimidine-2,4-diamine] | 5.44 |
| Nc1nc(NCc2cncnc2)c2ncc(-c3cc[nH]n3)cc2n1 [Example 18] | 5.70 |
| Nc1cc(N[C@H]2CCOC2)c2cnc(-c3cc[nH]n3)cc2n1 [Example 12] | 5.77 |
| Nc1cc(N[C@H]2CC[C@H](O)C2)c2ncc(-c3ccn[nH]3)cc2n1 [Example 4, (1S,3S)-3-((2-amino-7-(1H-pyrazol-5-yl)-1,5-naphthyridin-4-yl)amino)cyclopentan-1-ol] | 5.46 |
| Nc1nc(NCCO)c2ncc(-c3cc[nH]n3)cc2n1 [Example 20] | 5.72 |
| Nc1cc(N[C@H]2CC[C@H](O)C2)c2ccc(-c3cc[nH]n3)nc2n1 [Example 8] | 5.80 |
| Nc1cc(N[C@H]2CC[C@H](O)C2)c2cnc(-c3ccn[nH]3)cc2n1 [Example 2, (1S,3S)-3-((2-amino-7-(1H-pyrazol-5-yl)-1,6-naphthyridin-4-yl)amino)cyclopentan-1-ol] | 4.77 |
| Nc1cc(N[C@@H]2CCOC2)c2ncc(-c3ccn[nH]3)cc2n1 [Example 14] | 5.59 |
| Nc1cc(NCCCO)c2cnc(-c3cc[nH]n3)cc2n1 [Example 11] | 5.77 |

These reach a higher pEC50. Values come first.

| pEC50 | SMILES |
| --- | --- |
| 6.03 | Nc1cc(N[C@H]2CCOC2)c2ccc(-c3cc[nH]n3)nc2n1 [Example 10] |
| 6.55 | Nc1cc(NCc2cccnn2)c2ncc(-c3ccn[nH]3)cc2n1 [Example 29] |
| 6.46 | Nc1cc(NCCCO)c2ncc(-c3ccn[nH]3)cc2n1 [Example 16] |
| 6.55 | Nc1cc(NCc2cc[nH]n2)c2ncc(-c3ccn[nH]3)cc2n1 [Example 15] |
| 6.85 | Nc1cc(N[C@H]2C[C@H](O)C2)c2ncc(-c3ccn[nH]3)cc2n1 [Example 28] |
| 6.51 | Nc1cc(NCCO)c2ncc(-c3ccn[nH]3)cc2n1 [Example 3, 2-((2-amino-7-(1H-pyrazol-3-yl)-1,5-naphthyridin-4-yl)amino)ethan-1-ol] |
| 6.51 | C[C@H](O)CNc1cc(N)nc2cc(-c3ccn[nH]3)cnc12 [Example 24] |
| 6.15 | Nc1nc(N2CCCOCC2)c2ncc(-c3cc[nH]n3)cc2n1 [Example 21] |
| 6.07 | Nc1cc(-c2cc[nH]n2)c2ncc(-c3ccn[nH]3)cc2n1 [Example 5, 4-(1H-pyrazol-3-yl)-7-(1H-pyrazol-5-yl)-1,5-naphthyridin-2-amine] |
| 6.23 | Nc1cc(N[C@@H]2CC[C@@H](O)C2)c2ncc(-c3ccn[nH]3)cc2n1 [Example 26] |
| 6.16 | Nc1nc(NCCc2ccccn2)c2ncc(-c3cc[nH]n3)cc2n1 [Example 19] |
| 6.08 | Nc1nc(NCCCO)c2ncc(-c3cc[nH]n3)cc2n1 [Example 17] |
| 7.10 | C[C@@H](O)CNc1cc(N)nc2cc(-c3ccn[nH]3)cnc12 [Example 25] |
